Source: patent US5853742A, “Cosmetic compositions containing lactate dehydrogenase inhibitors” (priority 1997, dated 1998)
“And” between values parts separate entries of the source, which are not always exact repeats. Equal values may be shown once. Read-outs that look alike come from different tables or passages of the source. Each block holds one molecule with its values, some of them ahead of it.

Columns and labels:
[1] = system: Neonatal human dermal fibroblasts; experiment: Collagen synthesis (secreted procollagen 1 immunoassay); type: cell-based; details: 0.2 to 20 mM, 48 hours, serum-free medium
Protocol: Neonatal human dermal fibroblasts were purchased from Clonetics Corp., San Diego, Calif. All materials for cell culture were purchased from Life Technologies, N.Y. Cells were maintained in DMEM with 10% fetal bovine serum and used in passages 5-10, Confluent 96-well plates containing fibroblasts were treated with test materials (0.2 to 20 mM) in serum-free medium for 48 hours. […] This was carried out in a BioDot SF apparatus according to the manufacturer's instructions (BioRad Labs, CA) and the blot was developed using a Vectastain Kit (PK6104, Vector Labs, CA) as per the manufacturer's directions. Color intensity was quantitated using an Ultroscan XL densitometer (Pharmacia LKB). Fold increase was calculated as (density of treated)/untreated.

[2] = system: Normal human epidermal keratinocytes (NHEK); experiment: Keratinocyte proliferation (DNA content, fluorometric); type: cell-based
Protocol: Normal human epidermal keratinocytes (NHEK) derived from neonatal foreskin were used for all experiments. Media were purchased from Clonetics Corp., San Diego, Calif. Cell stocks frozen in passage 2 were grown in Keratinocyte Growth Medium (KGM) and passaged when 70-80% confluent. Cells were seeded in 96 well plates (Corning) at a density of 7500 cells/well in KGM. After 24 hours, cells were rinsed and dosed with test compounds in 200 μl of Keratinocyte Basal Medium (KBM). Plates were incubated for three days at 37° C., 5% CO2. Cell proliferation was estimated by assaying for DNA content by a fluorometric method described by Rago et al. (Analytical Biochemistry, 191:31-34, 1990). Medium was removed and cells were rinsed with phosphate buffered saline solution. 100 μl of sterile distilled water was added to each well and plates were frozen at -70° C. for one and a half hours. Plates were thawed for one hour at which time 100 μl of a 20 ug/ml solution of Bisbenzimide H33258 fluorochrome (Calbiochem Corp., La Jolla, Calif.) was added to each well. The fluorochrome was prepared just prior to use in 10 mM Tris, 1 mM EDTA, 4M NaCl, pH 7.4. Plates were read in a Millipore Cytofluor fluorescent plate reader to quantify DNA (excitation 360 nm, emission 460 nm). Percent increase over control was calculated from blank-corrected readings as (treated-untreated)/(untreated)*100%.

[3] = system: Fibroblast Lactate Dehydrogenase; experiment: Lactate dehydrogenase (LDH) inhibition, fibroblast lysate; type: biochemical, human
Protocol: All reagents were purchased from Sigma Chemical Co., St. Louis, Mo, USA. Sigma procedure No. 500 was modified for our purposes. One mL of pyruvate substrate (Sigma […]-1, pH=7.5) was added to a vial containing 1 mg NADH (Sigma 340-101). In a 96-well plate, the following components were added to each test well: 10 μl pyruvate/NADH mixture, and 10 μl cell lysate. For preparation of cell lysates, neonatal human keratinocytes or fibroblasts (Clonetic Corp., San Diego, Calif.) were cultured in tissue culture plates (Corning, USA). Cells were scraped in PBS (pH=7.4) and this solution was used as a source of L-lactate dehydrogenase. If such cell lysate was not available, a commercial preparation of L-lactic dehydrogenase (E.C.1.1.1.27), Sigma L9889, from porcine heart could be used in place of the cell lysate. For positive control, the inhibitor was replaced with 10 μl of PBS. For blank determination, the lysate or enzyme was replaced with […]. After mixing, the plate was incubated for 30 minutes at 37° C. Then 20 μl of color reagent (Sigma 505-2) was added to each well. After 20 minutes at room temperature, 150 μI of 0.4N NaOH was added, and the plate was read for absorbance at 490 nm in a Dynatech MR 7000 Microplate Reader. To calculate % inhibition, the control activity (CA) was first determined by subtracting the absorbance of the positive control from the blank, Then the activity in the presence of the inhibitor (IA) was calculated by subtracting the appropriate absorbance from the blank. %/, Inhibition was then calculated as: ((CA-IA)/CA)* 100%/.

- Maximum fold over Control (collagen synthesis) [1]: 2.0 fold
Molecule: CC(=O)O [Acetate]

Molecule: O=C(O)CC(O)(CC(=O)O)C(=O)O [Citrate]
- activation at 10 µM ([2]; Homo sapiens, NHEK, 72 h, read-out: % Increase Over Control (keratinocyte proliferation), Table 6, citrate 0.01 mM): 25%
- activation at 100 µM ([2]; Homo sapiens, NHEK, 72 h, read-out: % Increase Over Control (keratinocyte proliferation), Table 6, citrate 0.1 mM): 40%
- activation at 150 µM ([2]; Homo sapiens, NHEK, 72 h, read-out: % Increase Over Control (keratinocyte proliferation), Table 6, citrate 0.15 mM): 18%
- activation at 300 µM ([2]; Homo sapiens, NHEK, 72 h, read-out: % Increase Over Control (keratinocyte proliferation), Table 6, citrate 0.3 mM): 39%
- activation at 600 µM ([2]; Homo sapiens, NHEK, 72 h, read-out: % Increase Over Control (keratinocyte proliferation), Table 6, citrate 0.6 mM): 35%
- activation at 1000 µM ([2]; Homo sapiens, NHEK, 72 h, read-out: % Increase Over Control (keratinocyte proliferation), Table 6, citrate 1.0 mM): 20%
- activation at 1250 µM ([2]; Homo sapiens, NHEK, 72 h, read-out: % Increase Over Control (keratinocyte proliferation), Table 6, citrate 1.25 mM): 18%
- activation at 2500 µM ([2]; Homo sapiens, NHEK, 72 h, read-out: % Increase Over Control (keratinocyte proliferation), Table 6, citrate 2.5 mM): 0%
- activation at 5000 µM ([2]; Homo sapiens, NHEK, 72 h, read-out: % Increase Over Control (keratinocyte proliferation), Table 6, citrate 5.0 mM): 0%
- activation at 10000 µM ([2]; Homo sapiens, NHEK, 72 h, read-out: % Increase Over Control (keratinocyte proliferation), Table 6, citrate 10 mM): 0%
- activation at 2 µM ([2]; Homo sapiens, NHEK, 72 h, read-out: % Increase Over Control (keratinocyte proliferation), Table 7, 0.002 mM): 22%
- activation at 20 µM ([2]; Homo sapiens, NHEK, 72 h, read-out: % Increase Over Control (keratinocyte proliferation), Table 7, 0.02 mM): 31%
- activation at 20000 µM ([2]; Homo sapiens, NHEK, 72 h, read-out: % Increase Over Control (keratinocyte proliferation), Table 7, 20 mM): 0%

- % Inhibition ([3]; 0.625 mM): 0%
- % Inhibition ([3]; 1.25 mM): 0%
- % Inhibition ([3]; 2.5 mM): 0%
- % Inhibition ([3]; 5 mM): 0%
Molecule: C[C@@H](O)C(=O)O [D-lactate]

Molecule: N[C@@H](CCC(=O)O)C(=O)O [Glutamate]
- Maximum fold over Control (collagen synthesis) [1]: 3.6 fold

Molecule: NCC(=O)O [Glycinate]
- % Inhibition ([3]; 0.625 mM): 0%
- % Inhibition ([3]; 1.25 mM): 0%
- % Inhibition ([3]; 2.5 mM): 0%
- % Inhibition ([3]; 5 mM): 0%

- % Inhibition ([3]; 0.625 mM): 0%
- % Inhibition ([3]; 1.25 mM): 0%
- % Inhibition ([3]; 2.5 mM): 0%
- % Inhibition ([3]; 5 mM): 0%
Molecule: O=C(O)CO [Glycolate]

Molecule: O=C(O)CC(C(=O)O)C(O)C(=O)O (stereo not shown) [Isocitrate]
- activation at 0.2 µM ([2]; Homo sapiens, NHEK, 72 h, read-out: % Increase Over Control (keratinocyte proliferation), Table 8, isocitrate 0.0002 mM): 0%
- activation at 2 µM ([2]; Homo sapiens, NHEK, 72 h, read-out: % Increase Over Control (keratinocyte proliferation), Table 8, isocitrate 0.002 mM): 39%
- activation at 156 µM ([2]; Homo sapiens, NHEK, 72 h, read-out: % Increase Over Control (keratinocyte proliferation), Table 8, isocitrate 0.156 mM): 32%
- activation at 313 µM ([2]; Homo sapiens, NHEK, 72 h, read-out: % Increase Over Control (keratinocyte proliferation), Table 8, isocitrate 0.313 mM): 40%
- activation at 625 µM ([2]; Homo sapiens, NHEK, 72 h, read-out: % Increase Over Control (keratinocyte proliferation), Table 8, isocitrate 0.625 mM): 32%
- activation at 1250 µM ([2]; Homo sapiens, NHEK, 72 h, read-out: % Increase Over Control (keratinocyte proliferation), Table 8, isocitrate 1.25 mM): 40%
- activation at 2000 µM ([2]; Homo sapiens, NHEK, 72 h, read-out: % Increase Over Control (keratinocyte proliferation), Table 8, isocitrate 2.0 mM): 40%
- activation at 2500 µM ([2]; Homo sapiens, NHEK, 72 h, read-out: % Increase Over Control (keratinocyte proliferation), Table 8, isocitrate 2.5 mM): 32%
- activation at 5000 µM ([2]; Homo sapiens, NHEK, 72 h, read-out: % Increase Over Control (keratinocyte proliferation), Table 8, isocitrate 5.0 mM): 18%
- activation at 10000 µM ([2]; Homo sapiens, NHEK, 72 h, read-out: % Increase Over Control (keratinocyte proliferation), Table 8, isocitrate 10 mM): 0%
- % Increase Over Control (keratinocyte proliferation) ([2]; Table 8, isocitrate 0.002 mM): 20%
- % Increase Over Control (keratinocyte proliferation) ([2]; Table 8, isocitrate 2.0 mM): 30%

Molecule: O=C(O)CCC(=O)C(=O)O [Ketoglutarate]
- Maximum fold over Control (collagen synthesis) [1]: 2.2 fold

Molecule: O=C(O)C[C@H](O)C(=O)O [L-Malate]
- activation at 2 µM ([2]; Homo sapiens, NHEK, 72 h, read-out: % Increase Over Control (keratinocyte proliferation), Table 5, L-malate 0.002 mM): 34%
- activation at 20 µM ([2]; Homo sapiens, NHEK, 72 h, read-out: % Increase Over Control (keratinocyte proliferation), Table 5, L-malate 0.02 mM): 27%
- activation at 200 µM ([2]; Homo sapiens, NHEK, 72 h, read-out: % Increase Over Control (keratinocyte proliferation), Table 5, L-malate 0.2 mM): 36%
- % Increase Over Control (keratinocyte proliferation) ([2]; Table 5, L-malate 0.2 mM): 19% and 29%
- % Increase Over Control ([2]; Table 12, oxamate 0, malate 0.156 mM): 33%
- % Increase Over Control ([2]; Table 12, oxamate 0, malate 0.313 mM): 29%
- % Increase Over Control ([2]; Table 12, oxamate 0, malate 0.625 mM): 36%
- % Increase Over Control ([2]; Table 12, oxamate 0, malate 1.25 mM): 25%
- % Increase Over Control ([2]; Table 12, oxamate 0, malate 2.5 mM): 39%
- % Increase Over Control ([2]; Table 12, oxamate 0, malate 5.0 mM): 20%
- % Inhibition ([3]; 0.625 mM): 0%
- % Inhibition ([3]; 1.25 mM): 0%
- % Inhibition ([3]; 2.5 mM): 0%
- % Inhibition ([3]; 5 mM): 0%

- % Inhibition ([3]; 0.625 mM): 0%
- % Inhibition ([3]; 1.25 mM): 0%
- % Inhibition ([3]; 2.5 mM): 0%
- % Inhibition ([3]; 5 mM): 0%
Molecule: C[C@H](O)C(=O)O [L-lactate]

- % Inhibition ([3]; 0.625 mM): 0%
- % Inhibition ([3]; 1.25 mM): 0%
- % Inhibition ([3]; 2.5 mM): 0%
- % Inhibition ([3]; 5 mM): 0%
Molecule: O=C(O)CC(=O)O [Malonate]

Molecule: O=C(O)CC(=O)C(=O)O [Oxaloacetate]
- activation at 2 µM ([2]; Homo sapiens, NHEK, 72 h, read-out: % Increase Over Control (keratinocyte proliferation), Table 9, oxaloacetate 0.002 mM): 11%
- activation at 20 µM ([2]; Homo sapiens, NHEK, 72 h, read-out: % Increase Over Control (keratinocyte proliferation), Table 9, oxaloacetate 0.02 mM): 15%
- activation at 80 µM ([2]; Homo sapiens, NHEK, 72 h, read-out: % Increase Over Control (keratinocyte proliferation), Table 9, oxaloacetate 0.08 mM): 56%
- activation at 200 µM ([2]; Homo sapiens, NHEK, 72 h, read-out: % Increase Over Control (keratinocyte proliferation), Table 9, oxaloacetate 0.2 mM): 22%
- activation at 2500 µM ([2]; Homo sapiens, NHEK, 72 h, read-out: % Increase Over Control (keratinocyte proliferation), Table 9, oxaloacetate 2.5 mM): 40%
- activation at 5000 µM ([2]; Homo sapiens, NHEK, 72 h, read-out: % Increase Over Control (keratinocyte proliferation), Table 9, oxaloacetate 5.0 mM): 35%
- activation at 20000 µM ([2]; Homo sapiens, NHEK, 72 h, read-out: % Increase Over Control (keratinocyte proliferation), Table 9, oxaloacetate 20 mM): 44%
- % Increase Over Control (keratinocyte proliferation) ([2]; Table 9, oxaloacetate 0.02 mM): 30%
- % Increase Over Control (keratinocyte proliferation) ([2]; Table 9, oxaloacetate 0.2 mM): 20%
- % Increase Over Control (keratinocyte proliferation) ([2]; Table 9, oxaloacetate 2.5 mM): 37%
- % Increase Over Control (keratinocyte proliferation) ([2]; Table 9, oxaloacetate 5.0 mM): 52%
- Maximum fold over Control (collagen synthesis) [1]: 3.0 fold

- % Inhibition ([3]; 0.625 mM): 0%
- % Inhibition ([3]; 1.25 mM): 0%
- % Inhibition ([3]; 2.5 mM): 0%
- % Inhibition ([3]; 5 mM): 0%
Molecule: c1cn[nH]c1 [Pyrazole]

Molecule: CC(=O)C(=O)O [Pyruvate]
- % Increase Over Control ([2]; Table 11, oxamate 0, pyruvate 0.156 mM): 2%
- % Increase Over Control ([2]; Table 11, oxamate 0, pyruvate 0.313 mM): 0%
- % Increase Over Control ([2]; Table 11, oxamate 0, pyruvate 0.625 mM): 3%
- % Increase Over Control ([2]; Table 11, oxamate 0, pyruvate 1.25 mM): 0%
- % Increase Over Control ([2]; Table 11, oxamate 0, pyruvate 2.5 mM): 7%
- % Increase Over Control ([2]; Table 11, oxamate 0, pyruvate 5.0 mM): 0%

- Maximum fold over Control (collagen synthesis) [1]: 2.8 fold
Molecule: O=C(O)CCC(=O)O [Succinate]

Molecule: CC(S)C(=O)O (stereo not shown) [Thio-Lactate, Thiolactate]
- activation at 313 µM ([2]; Homo sapiens, NHEK, 72 h, Table 4, 0.313 mM, read-out: % increase over control (keratinocyte proliferation)): 9%
- activation at 625 µM ([2]; Homo sapiens, NHEK, 72 h, Table 4, 0.625 mM, read-out: % increase over control (keratinocyte proliferation)): 29%
- activation at 1250 µM ([2]; Homo sapiens, NHEK, 72 h, Table 4, 1.25 mM, read-out: % increase over control (keratinocyte proliferation)): 27%
- activation at 2500 µM ([2]; Homo sapiens, NHEK, 72 h, Table 4, 2.5 mM, read-out: % increase over control (keratinocyte proliferation)): 5%
- activation at 5000 µM ([2]; Homo sapiens, NHEK, 72 h, Table 4, 5 mM, read-out: % increase over control (keratinocyte proliferation)): 0%

- % Inhibition ([3]; 0.625 mM): 0%
- % Inhibition ([3]; 1.25 mM): 0%
- % Inhibition ([3]; 2.5 mM): 0%
- % Inhibition ([3]; 5 mM): 0%
Molecule: Methyl pyrazole
